Experimental data from the supplement of paper PMC10307832.

Tests used:
Assay in all cases: relative viability (nuclei count vs DMSO), 5 days (fraction); higher = more cells survive
[1] = system: ABC-1
Method in brief: (§1)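 Nuclei were stained with Hoechst during a one-step fixation (final 0.05% Triton X-100, 1% formaldehyde, 1 ug/ml Hoechst) carried out 5 days after dosing, then counted on 4× images. The cells, lung cancer lines in 1536-well plates, had been dosed by pin tool the day after seeding with one drug alone or a fixed anchor-drug dose plus five library-drug doses (not always all listed) in √10 steps. Relative viability is the nuclei count in treated wells divided by that in vehicle wells, and each value is the median of duplicate plates.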

[2] = system: CAL-12T
Method in brief: as §1

[3] = system: COR-L 105
Method in brief: as §1

[4] = system: ChaGo-K-1
Method in brief: as §1

[5] = system: EMC-BAC-2
Method in brief: as §1

[6] = system: EPLC-272H
Method in brief: as §1

[7] = system: HCC-15
Method in brief: as §1

[8] = system: HCC-78
Method in brief: as §1

[9] = system: HOP-62
Method in brief: as §1

[10] = system: LXF-289
Method in brief: as §1

[11] = system: NCI-H1666
Method in brief: as §1

[12] = system: NCI-H1755
Method in brief: as §1

[13] = system: NCI-H1915
Method in brief: as §1

[14] = system: NCI-H1975
Method in brief: as §1

[15] = system: NCI-H2023
Method in brief: as §1

[16] = system: NCI-H2085
Method in brief: as §1

[17] = system: NCI-H2126
Method in brief: as §1

[18] = system: NCI-H3122
Method in brief: as §1

[19] = system: NCI-H322M
Method in brief: as §1

[20] = system: NCI-H441
Method in brief: as §1

[21] = system: UMC-11
Method in brief: as §1

O=c1cc(-c2cccc3c2Sc2ccccc2S3)oc(N2CCOCC2)c1 + CC(C)C[C@H](NC(=O)[C@H](Cc1ccccc1)NC(=O)c1cnccn1)B(O)O [Bortezomib] (partner 0.002 µM)
relative viability ([1]; first compound 0.08 µM): 0.364
relative viability ([1]; first compound 0.253 µM): 0.312
relative viability ([1]; first compound 0.8 µM): 0.249
relative viability ([1]; first compound 2.53 µM): 0.333
relative viability ([1]; first compound 8 µM): 0.323
relative viability ([2]; first compound 0.08 µM): 0.716
relative viability ([2]; first compound 0.253 µM): 0.945
relative viability ([2]; first compound 0.8 µM): 1.02
relative viability ([2]; first compound 2.53 µM): 0.98
relative viability ([2]; first compound 8 µM): 1.05
relative viability ([3]; first compound 0.08 µM): 0.669
relative viability ([3]; first compound 0.253 µM): 0.715
relative viability ([3]; first compound 0.8 µM): 0.741
relative viability ([3]; first compound 2.53 µM): 0.795
relative viability ([3]; first compound 8 µM): 0.733
relative viability ([4]; first compound 0.08 µM): 0.915
relative viability ([4]; first compound 0.253 µM): 1.02
relative viability ([4]; first compound 0.8 µM): 1.28
relative viability ([4]; first compound 8 µM): 1.29
relative viability ([5]; first compound 0.08 µM): 1.03
relative viability ([5]; first compound 0.253 µM): 1.18
relative viability ([5]; first compound 0.8 µM): 1.1
relative viability ([5]; first compound 2.53 µM): 1.03
relative viability ([5]; first compound 8 µM): 1.1
relative viability ([6]; first compound 0.08 µM): 0.806
relative viability ([6]; first compound 0.253 µM): 1.09
relative viability ([6]; first compound 0.8 µM): 1.02
relative viability ([6]; first compound 2.53 µM): 0.721
relative viability ([6]; first compound 8 µM): 0.802
relative viability ([7]; first compound 0.08 µM): 1.07
relative viability ([7]; first compound 0.253 µM): 1.27
relative viability ([7]; first compound 0.8 µM): 1.22
relative viability ([7]; first compound 2.53 µM): 1
relative viability ([7]; first compound 8 µM): 1.16
relative viability ([8]; first compound 0.08 µM): 0.461
relative viability ([8]; first compound 0.253 µM): 0.48
relative viability ([8]; first compound 0.8 µM): 0.355
relative viability ([8]; first compound 2.53 µM): 0.482
relative viability ([8]; first compound 8 µM): 0.525
relative viability ([9]; first compound 0.08 µM): 0.734
relative viability ([9]; first compound 0.253 µM): 1.27
relative viability ([9]; first compound 0.8 µM): 0.735
relative viability ([9]; first compound 2.53 µM): 0.713
relative viability ([9]; first compound 8 µM): 1.08
relative viability ([10]; first compound 0.08 µM): 0.994
relative viability ([10]; first compound 0.253 µM): 0.976
relative viability ([10]; first compound 0.8 µM): 1.08
relative viability ([10]; first compound 2.53 µM): 0.988
relative viability ([10]; first compound 8 µM): 1.03
relative viability ([11]; first compound 0.08 µM): 0.666
relative viability ([11]; first compound 0.253 µM): 0.887
relative viability ([11]; first compound 0.8 µM): 0.559
relative viability ([11]; first compound 2.53 µM): 0.793
relative viability ([11]; first compound 8 µM): 0.759
relative viability ([12]; first compound 0.08 µM): 0.973
relative viability ([12]; first compound 0.253 µM): 1.09
relative viability ([12]; first compound 0.8 µM): 1.01
relative viability ([12]; first compound 2.53 µM): 1.01
relative viability ([12]; first compound 8 µM): 0.941
relative viability ([13]; first compound 0.08 µM): 1.07
relative viability ([13]; first compound 0.253 µM): 1.03
relative viability ([13]; first compound 0.8 µM): 1.09
relative viability ([13]; first compound 2.53 µM): 0.974
relative viability ([13]; first compound 8 µM): 1.16
relative viability ([14]; first compound 0.08 µM): 0.425
relative viability ([14]; first compound 0.253 µM): 0.419
relative viability ([14]; first compound 0.8 µM): 0.319
relative viability ([14]; first compound 2.53 µM): 0.367
relative viability ([14]; first compound 8 µM): 0.384
relative viability ([15]; first compound 0.08 µM): 1
relative viability ([15]; first compound 0.253 µM): 1.1
relative viability ([15]; first compound 0.8 µM): 0.988
relative viability ([15]; first compound 2.53 µM): 0.528
relative viability ([15]; first compound 8 µM): 0.937
relative viability ([16]; first compound 0.08 µM): 1.01
relative viability ([16]; first compound 0.253 µM): 1.11
relative viability ([16]; first compound 0.8 µM): 1.14
relative viability ([16]; first compound 2.53 µM): 0.94
relative viability ([16]; first compound 8 µM): 1.09
relative viability ([17]; first compound 0.08 µM): 1.13
relative viability ([17]; first compound 0.253 µM): 1.13
relative viability ([17]; first compound 0.8 µM): 1.12
relative viability ([17]; first compound 2.53 µM): 1.1
relative viability ([17]; first compound 8 µM): 1.2
relative viability ([18]; first compound 0.08 µM): 1.05
relative viability ([18]; first compound 0.253 µM): 1.15
relative viability ([18]; first compound 0.8 µM): 1.08
relative viability ([18]; first compound 2.53 µM): 1
relative viability ([18]; first compound 8 µM): 1.12
relative viability ([19]; first compound 0.08 µM): 1.21
relative viability ([19]; first compound 0.253 µM): 1.21
relative viability ([19]; first compound 0.8 µM): 1.2
relative viability ([19]; first compound 2.53 µM): 1.04
relative viability ([19]; first compound 8 µM): 1.17
relative viability ([20]; first compound 0.08 µM): 0.488
relative viability ([20]; first compound 0.253 µM): 1.25
relative viability ([20]; first compound 0.8 µM): 0.98
relative viability ([20]; first compound 2.53 µM): 0.45
relative viability ([20]; first compound 8 µM): 0.594
relative viability ([21]; first compound 0.08 µM): 0.774
relative viability ([21]; first compound 0.253 µM): 1.19
relative viability ([21]; first compound 0.8 µM): 1.24
relative viability ([21]; first compound 2.53 µM): 0.535
relative viability ([21]; first compound 8 µM): 1.01
